Columns and labels:
Experiment in all cases: area under dose-response viability curve (log dose) (AUC (arbitrary)); higher = less sensitive
Conditions in all cases: 72 h
Daunorubicine = compound: COc1cccc2c1C(=O)c1c(O)c3c(c(O)c1C2=O)C[C@@](O)(C(C)=O)C[C@@H]3O[C@H]1C[C@H](N)[C@H](O)[C@H](C)O1 [Daunorubicine]
Description: (§1)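 Primary AML blasts from patients (3q26 EVI1-high and other AML) were treated for 72 h with a dose series of each drug. Viability was measured with an ATP-based CellTiter-Glo assay. The area under the curve of the log-transformed dose-response data was computed in GraphPad Prism; a lower AUC means greater sensitivity.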

Entinostat = compound: Nc1ccccc1NC(=O)c1ccc(CNC(=O)OCc2cccnc2)cc1 [Entinostat]
Description: as §1

AR-42 = compound: CC(C)[C@H](C(=O)Nc1ccc(C(=O)NO)cc1)c1ccccc1 [AR-42]
Description: as §1

Belinostat = compound: O=C(/C=C/c1cccc(S(=O)(=O)Nc2ccccc2)c1)NO [Belinostat]
Description: as §1

Methotrexate = compound: CN(Cc1cnc2nc(N)nc(N)c2n1)c1ccc(C(=O)N[C@@H](CCC(=O)O)C(=O)O)cc1 [Methotrexate]
Description: as §1

Vincristine = compound: CC[C@]1(O)C[C@H]2CN(CCc3c([nH]c4ccccc34)[C@@](C(=O)OC)(c3cc4c(cc3OC)N(C=O)[C@H]3[C@@](O)(C(=O)OC)[C@H](OC(C)=O)[C@]5(CC)C=CCN6CC[C@]43[C@@H]65)C2)C1 [Vincristine]
Description: as §1

Test System | area under dose-response viability curve (Daunorubicine) | area under dose-response viability curve (Entinostat) | area under dose-response viability curve (AR-42) | area under dose-response viability curve (Belinostat) | area under dose-response viability curve (Methotrexate) | area under dose-response viability curve (Vincristine)
PR#004 (EVI1 status: EVI1High) | 63.5 | 84.7 | 78.8 | 121 | 237 | 171
PR#008 (EVI1 status: EVI1High) | 15 | 82.3 | 55.7 | 81.8 | 195 | 116
PR#037 (EVI1 status: EVI1Low) | 83.7 | 106 | 126 | 127 | 213 | 113
PR#027 (EVI1 status: EVI1Low) | 63.1 | 197 | 158 | 164 | 262 | 186
PR#016 (EVI1 status: EVI1Low) | 104 | 159 | 148 | 156 | 270 | 152

From the supplement of paper PMC11150407
